Source: US20230322815A1, “NOVEL COMPOUNDS AND THERAPEUTIC USES THEREOF” (University of Huddersfield, priority 2020, published 2023)
“Also recorded” adds a separate entry of the source.

Experiments:
HT29 tumors = assay: Chick embryo chorioallantoic membrane (CAM) assay, in ovo efficacy; assay type: in vivo, human tumor cells on chick embryo CAM; details: for dose giving statistically significant regression of tumor growth (mean tumor weight at E18), comparable to SoC: L2Zn3 26.6, 53.2, 106.4 μM, L2Cu3 23.8, 65.7, 131.46 μM, SoC doxorubicin; for HT29 tumor cell metastasis to the lower CAM: any of the tested doses, data not shown
Description: FIG. 23. Activity of [L2Cu3]^6+ and [L2Zn3]^6+ against primary HT29 tumors. The results presented represent the mean tumour weight ±SEM following treatment at 3 different doses of [L2Cu3]^6+ and [L2Zn3]^6+: L2Zn3 [1]=26.6 μM, L2Zn3 [2]=53.2 μM, L2Zn3 [3]=106.4 μM; L2Cu3 [1]=23.8 μM, L2Cu3[2]=65.7 μM, L2Cu3[3]=131.46 μM. SoC doxorubicin. Statistical analysis by one way ANOVA (*): 0.05≥p value >0.01; (**): 0.01≥p value >0.001; (***): 0.001≥p value; (****): 0.0001≥p value. Number per experimental group n=10-14.
(§1) [L2Cu3]^6+ and [L2Zn3]^6+ were evaluated at three different doses for in ovo anti-cancer activity, toxicity and anti-metastatic activity against tumors initiated from three different human cancer cell line models (H460, HT29, HCT116), in the chick embryo chorioallantoic membrane (CAM) assay.
(§2) Each compound was provided to the contract research organisation (CRO) Inovotion (La Tronche, France) conducting the in ovo study, as a powder pre-weighed in single vials (2 equivalents of ligand, 3 equivalents of metal; and stored at room temperature). Before use, this was then dissolved in DMSO to 50 mM to generate a stock solution and further freshly diluted in RPM11640 or McCoys aqueous cell culture media for administration.
A standard of care (SoC) drug for the particular tumour type was tested concurrently as a comparative control for in vivo efficacy and toxicity evaluation. A solvent control served as a negative control for both SoC and experimental compounds.
10^6 tumor cells (H460, HT29 or HCT116) were grafted onto the upper chorioallantoic membrane (CAM) of the developing chick embryo on embryonic day 9 (E9). Access to the upper CAM was through a small hole drilled through the eggshell of fertilized White Leghorn eggs (into the air sac) on E9 (15 eggs per experimental group).
100 μl of freshly prepared experimental compound, vehicle control or standard-of-care (SoC) drug at their working concentrations were pipetted onto the tumor graft at E11, E13, E15 and E17. On day E18, the upper CAM (with tumor) was removed, washed by PBS buffer and then directly transferred in PFA (fixation for 48 hrs). After that, tumors were carefully cut away from normal CAM tissue and weighed.
(§3) On day E18, a 1 cm^2 portion of the lower CAM was collected (n=8 per group), stored at −20° C. and later processed to extract DNA. Samples were analysed for human genomic DNA (qPCR for Alu sequences) as a quantitative marker of tumor metastasis to the lower CAM.

AMPK = assay: Cell-free kinase screen; assay type: biochemical, human; details: 10 μM complex
Description: (§4) FIG. 9. Effects of [L2Zn3]^6+ and [L2Cu3]^6+ on the activity of purified human kinases. a,b, Percentage inhibition of the indicated kinases by [L2Zn3]^6+ (a) and [L2Cu3]^6+ (b) respectively at a concentration of 10 μM; full results are presented in the ESI. c,d, Kinases whose activity is stimulated by [L2Zn3]^6+ (c) or [L2Cu3]^6+ (d) complexes. e,f, Kinome map showing kinases inhibited (red) or stimulated (green) by [L2Zn3]^6+ (e) or [L2Cu3]^6+ (f). III ustration reproduced courtesy of Cell Signalling Technology Inc (www.cellsignal.com)
(§5) FIG. 16. The effect of [L2Zn3]^6+ and [L2Cu3]^6+ on the activity of recombinant human kinases. The compounds were submitted to the MRC Protein Phosphorylation and Ubiquitination Unit International Centre for Kinase Profiling (University of Dundee) and tested at a concentration of 10 μM against 140 human kinases (Premier Screen).
(§6) Given the ability of the Zn^2+ complex to dephosphorylate amino acids serine, tyrosine and threonine (FIG. 6) and the Cu^2+ complex to bind phenyl phosphate (FIG. 3), it was examined whether the complexes affect the activity of kinases. This was assessed in a cell-free screen of 140 kinases using purified recombinant human kinases and substrate peptides incubated in the presence of ^33P ATP and 10 μM complex or solvent control. […]

[1] = Direct ATP hydrolysis by the complex (mass spectroscopy); details: ATP incubated with complex alone
From the text: There are several potential mechanisms which could lead the observed kinase inhibition ‘readout’ of this screen including, i) direct ATP hydrolysis by the complex(es) and differing Km of the kinases for ATP, and, ii) dephosphorylation of the peptide substrate by the phosphatase activity of the Zn^2+ complex resulting in cycles of peptide phosphorylation by active recombinant enzyme and dephosphorylation by the complex.

140 human kinases = assay: Cell-free screen of 140 kinases (33P ATP, Premier Screen); assay type: biochemical; details: 10 μM complex
Description: as §4, §5, §6

HCT116 tumors = assay: Chick embryo chorioallantoic membrane (CAM) assay, in ovo efficacy; assay type: in vivo, human tumor cells on chick embryo CAM; details: for doses giving statistically significant regression of tumor growth (mean tumor weight at E18): L2Zn3 70.5, 141, 282 μM, L2Cu3 75, 150, 300 μM
Description: FIG. 24. Activity of [L2Cu3]^6+ and [L2Zn3]^6+ against primary HCT116 tumors. The results presented represent the mean tumour weight ±SEM following treatment at 3 different doses of [L2Cu3]^6+ and [L2Zn3]^6+: L2Zn3 [1]=70.5 μM, L2Zn3 [2]=141 μM, L2Zn3 [3]=282 μM; L2Cu3 [1]=75 μM, L2Cu3[2]=150 μM, L2Cu3[3]=300 μM. SoC doxorubicin. Statistical analysis by one way ANOVA (*): 0.05≥p value >0.01; (**): 0.01≥p value >0.001; (***): 0.001≥p value; (****): 0.0001≥p value. Number per experimental group n=12-15.
FIG. 25. Evaluation of the effects of [L2Cu3]^6+ and [L2Zn3]^6+ on primary HCT116 metastasis to the lower CAM. Relative ALU expression (relative to chicken GAPDH) as a quantitive marker of metastasis of human cells to the lower CAM. Relative expression ±SEM. L2Zn3 [1]=70.5 μM, L2Zn3 [2]=141 μM, L2Zn3 [3]=282 μM; L2Cu3 [1]=75 μM, L2Cu3[2]=150 μM, L2Cu3[3]=300 μM. SoC doxorubicin. Number per experimental group n=7-8.
as §1, §2
A standard of care (SoC) drug for the particular tumour type was tested concurrently as a comparative control for in vivo efficacy and toxicity evaluation. […]
as §3

SMILES | dose giving statistically significant regression of tumor growth (mean tumor weight at E18), comparable to SoC (HT29 tumors) | HT29 tumor cell metastasis to the lower CAM (HT29 tumors) | effect on AMPK activity in the kinase screen (AMPK) | hydrolysis of ATP [1] | inhibition of the most potently inhibited kinases (140 human kinases) | doses giving statistically significant regression of tumor growth (mean tumor weight at E18) (HCT116 tumors) | HCT116 metastatic load in the lower CAM (qPCR for Alu sequences) (HCT116 tumors; all three doses, comparable to SoC doxorubicin)
[Cu+2].[Cu+2].[Cu+2].c1ccc(-c2csc(NCCN(CCNc3nc(-c4ccccn4)cs3)CCNc3nc(-c4ccccn4)cs3)n2)nc1.c1ccc(-c2csc(NCCN(CCNc3nc(-c4ccccn4)cs3)CCNc3nc(-c4ccccn4)cs3)n2)nc1 [[L2Cu3]^6+] | highest tested dose | no reduction | inhibition of AMPK | little or no hydrolysis of ATP | ~100% | all three tested doses | –
[Zn+2].[Zn+2].[Zn+2].c1ccc(-c2csc(NCCN(CCNc3nc(-c4ccccn4)cs3)CCNc3nc(-c4ccccn4)cs3)n2)nc1.c1ccc(-c2csc(NCCN(CCNc3nc(-c4ccccn4)cs3)CCNc3nc(-c4ccccn4)cs3)n2)nc1 [[L2Zn3]^6+] | highest tested dose | no reduction | inhibition of AMPK | little or no hydrolysis of ATP | ~100% | the highest two doses tested | Decreases in HCT116 metastatic load; also recorded: strong regression tendency
